What all share (assay type): cell-based
Assay [1] has as its system COLO205 (colon). As to the kind of experiment: Inhibition of cell proliferation, CellTiter-Glo, COLO205. Particulars: Homo sapiens, COLO 205, 72 h. In a few lines:
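Exponentially growing COLO205 cells in medium with 10% FBS were plated below 2000 cells/well at 37 °C, 5% CO2. Untreated wells served as controls.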
(In general: Cellular ATP, detected with luciferase, serves as a proxy for viable cell number.)

Assay [2] deals with NCI-H929 (multiple myeloma). The assay is described as follows: Inhibition of cell proliferation, CellTiter-Glo, NCI-H929. Particulars: Homo sapiens, 72 h. In a few lines:
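Cells were grown in medium with 10% FBS at 37° C, 5% CO2. Cell number was read as CellTiter-Glo luminescence (cellular ATP), with untreated wells as control.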

In assay [3] the target is T1, human IGF-1R (NIH-3T3 cells over expressing human IGF-1R) (Homo sapiens, UniProt P08069).
T1 construct: expressed in transfected cells; host or cells: NIH-3T3 (mouse fibroblasts)
The assay is described as follows: IGF-1R cellular autophosphorylation (DELFIA). Particulars: IGF-1 stimulated. In short, it runs like this:
(§1)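 Readout: DELFIA on lysates, with anti-IGF-1R or anti-IR capture and europium anti-pTyr detection, expressed relative to 100% ligand-stimulated signal. Human IGF-1R- or IR-overexpressing NIH-3T3 cells got compound (1.5 nM–30 uM) for 2 h before 15 min IGF-1 (30 ng/mL) or insulin (3 ug/mL).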

For assay [4], the target named is T2, IR (NIH-3T3 cells over expressing human IGF-1R or IR) (Homo sapiens, UniProt P06213).
T2 construct: expressed in transfected cells; host or cells: NIH-3T3 (mouse fibroblasts)
The assay is described as follows: IR cellular autophosphorylation (DELFIA). Particulars: NIH-3T3 cells over expressing IR, insulin stimulated. In short, it runs like this: as §1

T2 sequence (P06213 28-1382): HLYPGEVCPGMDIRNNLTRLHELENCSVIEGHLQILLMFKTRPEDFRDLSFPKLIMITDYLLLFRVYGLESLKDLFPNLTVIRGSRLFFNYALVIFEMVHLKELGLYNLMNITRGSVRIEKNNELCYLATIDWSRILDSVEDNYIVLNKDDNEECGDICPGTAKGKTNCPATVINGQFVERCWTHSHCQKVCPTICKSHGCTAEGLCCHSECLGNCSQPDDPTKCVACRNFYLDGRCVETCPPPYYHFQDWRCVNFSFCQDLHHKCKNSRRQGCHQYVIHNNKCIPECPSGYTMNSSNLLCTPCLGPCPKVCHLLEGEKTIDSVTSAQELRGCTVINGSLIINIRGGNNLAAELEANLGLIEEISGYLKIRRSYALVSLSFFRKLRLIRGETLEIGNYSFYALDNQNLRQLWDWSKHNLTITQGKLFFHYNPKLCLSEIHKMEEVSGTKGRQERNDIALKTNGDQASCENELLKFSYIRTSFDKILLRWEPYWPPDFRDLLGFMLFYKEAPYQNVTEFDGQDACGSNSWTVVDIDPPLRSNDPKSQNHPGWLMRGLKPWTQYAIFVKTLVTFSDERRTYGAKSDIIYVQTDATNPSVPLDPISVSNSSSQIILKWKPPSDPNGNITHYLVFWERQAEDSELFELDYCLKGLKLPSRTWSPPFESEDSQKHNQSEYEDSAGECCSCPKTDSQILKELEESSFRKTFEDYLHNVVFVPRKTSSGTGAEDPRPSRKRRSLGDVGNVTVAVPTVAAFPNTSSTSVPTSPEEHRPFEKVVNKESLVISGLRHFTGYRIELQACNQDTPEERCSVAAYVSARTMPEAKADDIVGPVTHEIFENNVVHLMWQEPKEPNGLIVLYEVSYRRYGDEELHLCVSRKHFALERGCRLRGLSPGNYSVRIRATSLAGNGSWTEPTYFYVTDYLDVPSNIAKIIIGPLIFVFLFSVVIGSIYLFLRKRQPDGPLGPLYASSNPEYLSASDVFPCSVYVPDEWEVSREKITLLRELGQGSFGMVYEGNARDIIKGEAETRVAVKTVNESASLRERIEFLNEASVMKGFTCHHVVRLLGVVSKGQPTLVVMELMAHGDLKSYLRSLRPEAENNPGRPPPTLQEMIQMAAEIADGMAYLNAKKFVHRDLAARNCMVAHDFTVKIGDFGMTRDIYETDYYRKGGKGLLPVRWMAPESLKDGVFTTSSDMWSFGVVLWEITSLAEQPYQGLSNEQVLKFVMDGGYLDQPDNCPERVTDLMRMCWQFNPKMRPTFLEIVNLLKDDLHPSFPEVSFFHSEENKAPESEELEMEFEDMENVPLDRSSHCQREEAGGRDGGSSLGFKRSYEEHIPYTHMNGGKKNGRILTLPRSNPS
T1 sequence (P08069 31-1367): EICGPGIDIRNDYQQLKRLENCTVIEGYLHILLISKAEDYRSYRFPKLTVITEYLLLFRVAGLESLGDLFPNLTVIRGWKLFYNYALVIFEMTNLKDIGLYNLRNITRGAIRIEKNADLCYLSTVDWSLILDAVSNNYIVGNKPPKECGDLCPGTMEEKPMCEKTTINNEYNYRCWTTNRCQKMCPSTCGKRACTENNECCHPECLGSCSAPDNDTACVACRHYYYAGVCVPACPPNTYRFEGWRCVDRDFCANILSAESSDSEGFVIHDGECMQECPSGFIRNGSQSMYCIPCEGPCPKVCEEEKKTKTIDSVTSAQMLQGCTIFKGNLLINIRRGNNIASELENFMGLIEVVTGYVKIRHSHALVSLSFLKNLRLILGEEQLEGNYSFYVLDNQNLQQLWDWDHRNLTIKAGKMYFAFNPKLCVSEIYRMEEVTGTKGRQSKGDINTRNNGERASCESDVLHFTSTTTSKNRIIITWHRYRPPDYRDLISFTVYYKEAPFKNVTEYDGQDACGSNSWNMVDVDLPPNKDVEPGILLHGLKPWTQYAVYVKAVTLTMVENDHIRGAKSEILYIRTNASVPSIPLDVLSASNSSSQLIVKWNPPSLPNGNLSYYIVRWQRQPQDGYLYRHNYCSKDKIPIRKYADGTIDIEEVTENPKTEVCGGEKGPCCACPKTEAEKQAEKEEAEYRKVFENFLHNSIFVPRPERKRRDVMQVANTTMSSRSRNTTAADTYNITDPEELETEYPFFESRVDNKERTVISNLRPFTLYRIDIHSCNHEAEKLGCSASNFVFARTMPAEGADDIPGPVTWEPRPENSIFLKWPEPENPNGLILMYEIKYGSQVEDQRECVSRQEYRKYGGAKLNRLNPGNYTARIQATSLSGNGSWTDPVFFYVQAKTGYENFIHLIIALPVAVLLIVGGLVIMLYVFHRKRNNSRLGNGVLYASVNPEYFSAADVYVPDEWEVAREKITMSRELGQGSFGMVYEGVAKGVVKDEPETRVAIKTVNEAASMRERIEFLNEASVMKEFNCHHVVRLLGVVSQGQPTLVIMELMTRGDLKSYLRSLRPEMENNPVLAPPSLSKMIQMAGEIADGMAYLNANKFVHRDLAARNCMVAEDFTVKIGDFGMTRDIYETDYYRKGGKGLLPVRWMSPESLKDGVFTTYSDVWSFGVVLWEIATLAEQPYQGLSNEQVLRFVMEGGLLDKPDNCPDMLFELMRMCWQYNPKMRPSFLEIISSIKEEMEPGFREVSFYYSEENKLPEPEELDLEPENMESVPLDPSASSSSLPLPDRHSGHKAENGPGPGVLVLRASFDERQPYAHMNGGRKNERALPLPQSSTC

For `COc1cc(N2CCC(N3CCN(CCF)CC3)CC2)ccc1Nc1nccc(-c2c(-c3cccc(C(=O)Nc4c(F)cccc4F)c3)nc3c(F)cccn23)n1` [Example 188, N-(2,6-difluorophenyl)-3-[8-fluoro-3-(2-{[4-{4-[4-(2-fluoroethyl)-1-piperazinyl]-1-piperidinyl}-2-(methyloxy)phenyl]amino}-4-pyrimidinyl)imidazo[1,2-a]pyridin-2-yl]benzamide], the IC50 in assay [1] was > 1000 nM; in assay [2] it was 250 to 1000 nM; in assay [3], < 100 nM; in assay [4], 100 to 500 nM.
Consider `CCOc1cc(N2CCC(N3CCN(S(C)(=O)=O)CC3)CC2)c(CC)cc1Nc1nccc(-c2c(-c3ccc(OC)c(C(=O)Nc4c(F)cccc4F)c3)nc3ccccn23)n1` [Example 204, N-(2,6-difluorophenyl)-5-(3-{2-[(5-ethyl-2-(ethyloxy)-4-{4-[4-(methylsulfonyl)-1-piperazinyl]-1-piperidinyl]phenyl)amino]-4-pyrimidinyl}imidazo[1,2-a]pyridin-2-yl)-2-(methyloxy)benzamide], for which the IC50 in assay [1] was < 250 nM; in assay [2], < 250 nM; in assay [3] it was < 100 nM; in assay [4], < 100 nM.
As to `COc1cc(C2CCN(CCS(C)(=O)=O)CC2)c(C)cc1Nc1nccc(-c2c(-c3cccc(C(=O)Nc4c(F)cccc4F)c3)nc3ccccn23)n1` [Example 165, N-(2,6-difluorophenyl)-3-(3-{2-[(5-methyl-2-(methyloxy)-4-{1-[2-(methylsulfonyl)ethyl]-4-piperidinyl}phenyl)amino]-4-pyrimidinyl}imidazo[1,2-a]pyridin-2-yl)benzamide], the IC50 in assay [1] is 250 to 1000 nM; in assay [2], < 250 nM; in assay [3], < 100 nM; in assay [4], < 100 nM.
As for `CCOc1ccc(-c2nc3ccccn3c2-c2ccnc(Nc3cc(C)c(N4CCN(CCS(C)(=O)=O)CC4)cc3OC)n2)cc1C(=O)Nc1c(F)cccc1F` [Example 150, N-(2,6-difluorophenyl)-2-(ethyloxy)-5-(3-{2-[(5-methyl-2-(methyloxy)-4-{4-[2-(methylsulfonyl)ethyl]-1-piperazinyl}phenyl)amino]-4-pyrimidinyl}imidazo[1,2-a]pyridin-2-yl)benzamide], the IC50 in assay [1] was < 250 nM; in assay [2], < 250 nM; in assay [3], < 100 nM; in assay [4], < 100 nM.
Take `CCOc1cc(N2CCC(CCS(C)(=O)=O)CC2)c(CC)cc1Nc1nccc(-c2c(-c3ccc(OC)c(C(=O)Nc4c(F)cccc4F)c3)nc3ccccn23)n1` [Example 210, N-(2,6-difluorophenyl)-5-[3-{2-[(5-ethyl-2-(ethyloxy)-4-{4-[2-(methylsulfonyl)ethyl]-1-piperidinyl}phenyl)amino]-4-pyrimidinyl}imidazo[1,2-a]pyridin-2-yl)-2-(methyloxy)benzamide]: the IC50 in assay [1] was < 250 nM; in assay [2] it was < 250 nM; in assay [3], < 100 nM; in assay [4] it was < 100 nM.
With `COc1cc(N2CCC(N3CCC(F)CC3)CC2)ccc1Nc1nccc(-c2c(-c3cccc(C(=O)Nc4c(F)cccc4F)c3)nc3ccccn23)n1` [Example 51, N-(2,6-difluorophenyl)-3-[3-(2-{[4-(4-fluoro-1,4′-bipiperidin-1′-yl)-2-(methyloxy)phenyl]amino}-4-pyrimidinyl)imidazo[1,2-a]pyridin-2-yl]benzamide], the IC50 in assay [1] is 250 to 1000 nM; in assay [2], 250 to 1000 nM; in assay [3] it was < 100 nM; in assay [4], 100 to 500 nM.
For the compound `COc1cc(N2CCC(N3CCC(CCS(C)(=O)=O)CC3)CC2)ccc1Nc1nccc(-c2c(-c3cccc(C(=O)Nc4c(F)cccc4F)c3)nc3ccccn23)n1` [Example 101, N-(2,6-difluorophenyl)-3-(3-{2-[(2-(methyloxy)-4-{4-[2-(methylsulfonyl)ethyl)-1,4′-bipiperidin-1′-yl]phenyl)amino]-4-pyrimidinyl}imidazo[1,2-a]pyridin-2-yl)benzamide], the IC50 in assay [1] is 250 to 1000 nM; in assay [2], < 250 nM; in assay [3], < 100 nM; in assay [4], < 100 nM.
In the case of `COc1cc(N2CCC(N3CCN(S(C)(=O)=O)CC3)CC2)ccc1Nc1nccc(-c2c(-c3cccc(C(=O)Nc4c(F)cccc4F)c3)nc3c(F)cccn23)n1` [Example 192, N-(2,6-difluorophenyl)-3-(8-fluoro-3-{2-[(2-(methyloxy)-4-{4-[4-(methylsulfonyl)-1-piperazinyl]-1-piperidinyl}phenyl)amino]-4-pyrimidinyl}imidazo[1,2-a]pyridin-2-yl)benzamide], the IC50 in assay [1] is 250 to 1000 nM; in assay [2] it was 250 to 1000 nM; in assay [3] it was < 100 nM; in assay [4], 100 to 500 nM.
On to `CCCN1CCC(c2cc(OC)c(Nc3nccc(-c4c(-c5cccc(C(=O)Nc6c(F)cccc6F)c5)nc5ccccn45)n3)cc2C)CC1` [Example 159, N-(2,6-difluorophenyl)-3-[3-(2-{[5-methyl-2-(methyloxy)-4-(1-propyl-4-piperidinyl)phenyl]amino}-4-pyrimidinyl)imidazo[1,2-a]pyridin-2-yl]benzamide], for which the half-maximal inhibitory concentration (IC50) in assay [1] is 250 to 1000 nM; in assay [2] it was < 250 nM; in assay [3], < 100 nM; in assay [4], < 100 nM.
With `COc1cc(N2CCC(CCS(C)(=O)=O)CC2)ccc1Nc1nccc(-c2c(-c3ccc(OC)c(C(=O)Nc4c(F)cccc4F)c3)nc3ccccn23)n1` [Example 201, N-(2,6-difluorophenyl)-2-(methyloxy)-5-(3-{2-[(2-(methyloxy)-4-{4-[2-(methylsulfonyl)ethyl]-1-piperidinyl}phenyl)amino]-4-pyrimidinyl}imidazo[1,2-a]pyridin-2-yl)benzamide], the IC50 in assay [1] is 250 to 1000 nM; in assay [2], < 250 nM; in assay [3], < 100 nM; in assay [4], < 100 nM.
As for `COc1cc(N2CCN(CCS(C)(=O)=O)[C@@H](C(C)C)C2)ccc1Nc1nccc(-c2c(-c3ccc(OC)c(C(=O)Nc4c(F)cccc4F)c3)nc3ccccn23)n1` [Example 250, N-(2,6-difluorophenyl)-5-[3-(2-{[4-{(3S)-3-(1-methylethyl)-4-[2-(methylsulfonyl)ethyl]-1-piperazinyl}-2-(methyloxy)phenyl]amino}-4-pyrimidinyl)imidazo[1,2-a]pyridin-2-yl]-2-(methyloxy)benzamide], the IC50 is 250 to 1000 nM in assay [1], < 250 nM in assay [2], < 100 nM in assay [3] and < 100 nM in assay [4].
For the compound `COc1cc(N2CCC(N3CCN(CCF)CC3)CC2)ccc1Nc1nccc(-c2c(-c3ccc(OC)c(C(=O)Nc4c(F)cccc4F)c3)nc3cc(F)ccn23)n1` [Example 197, N-(2,6-difluorophenyl)-5-[7-fluoro-3-(2-{[4-{4-[4-(2-fluoroethyl)-1-piperazinyl]-1-piperidinyl]-2-(methyloxy)phenyl]amino}-4-pyrimidinyl)imidazo[1,2-a]pyridin-2-yl]-2-(methyloxy)benzamide], the IC50 is 250 to 1000 nM in assay [1], < 250 nM in assay [2], < 100 nM in assay [3] and < 100 nM in assay [4].

Usually IC50 stands for the concentration needed to halve the response being measured. Read a high IC50 as weaker potency.

The record behind these values is US20100216779A1 (GLAXOSMITHKLINE LLC, priority 2007, published 2010).
